According to patent US6743446B2, “Methods for stabilizing biologically active agents encapsulated in biodegradable controlled-release polymers” (The Ohio State University Research Foundation, priority 1999, dated 2004):
Where a name gives a salt, the structure may show the parent alone. One block for each molecule: values may come before it.

Columns and labels:
tPA = tPA (Homo sapiens, UniProt P00750); assay: tPA release from PLGA millicylinders by activity analysis; format: physicochemical
Experimental: Here, by using this rationale, tPA was successfully encapsulated into PLGA implants. tPA, a protein with a MW of ˜60 K Da is a tissue type endogenous serine proteaese involved in thrombi dissolution. The FDA has approved the use of recombinant tPA in the treatment of myocardial infarction. Controlled release systems for local delivery was developed by using hydrogel to control wound healing. A multi-drug controlled release implant with tPA encapsulated was also tested for the intraocular management of proliferative vitroretinopahty (PVR). […] Arginine hydrochloride and BSA were added in the release medium to improve the stability of released tPA. The release profile and active residue of tPA after release was evaluated by activity analysis. […] As far as is known, only very few protein formulations have shown continuous and complete release over one month period without losing activity.

[1] = pH measurement of saturated basic salts in water; format: physicochemical; details: excess basic salt suspended in water, 37° C., 7 days
Experimental: The suspension was then incubated at 37° C. for 7 days. The pH of the supernatant was determined with a Corning 430 pH meter (Corning Inc., NY).

[2] = pH of saturated basic salt suspension after addition of 1 N HCl; format: physicochemical; details: acid added to the saturated suspension with excess salt, 37° C., 3 days
Excerpt: The difference of the neutralization effect from the salts is also reflected in the different water contents of their PLGA devices.

BSA [3] = biological target: T1, BSA (Bos taurus, UniProt P02769); assay: BSA release and aggregation in PLGA millicylinders incubated in PBST at 37° C.; format: physicochemical, bovine
T1 construct: purchased Sigma Chemical Co. (St. Louis, Mo.) A-3059
Experimental: A solvent extrusion method similar to that used previously by our group for intraocular implants was used to prepare the PLGA cylinders with a diameter on the millimeter scale, which we term millicylinders. Briefly, a uniform suspension of sieved protein powder (<90 μm) with or without basic salt in 50% (w/w) acetone-PLGA 50/50 solution was loaded in a syringe and extruded into a silicone tubing (I.D. 0.8 mm) at about 0.1 ml/min. The solvent extruded suspension was dried at room temperature for 24 h and then dried in a vacuum oven at 45° C. for another 24 h before testing. The protein loading was calculated as the percentage of amount of BSA versus the total weight of mixture (i.e., protein, polymer, and salt).
Release of protein was carried out in PBST (which consists of PBS (7.74 mM Na2HPO4, 2.26 mM NaH2O4, 137 mM NaCl, and 3 mM KCl, pH 7.4), and 0.02% w/v Tween® 80) at 37° C. under perfect sink conditions. Millicylinders (10×0.8 mm, 5-10 mg or microspheres (about 20 mg) were placed in I ml of the release medium and the medium was replaced at each time point. The protein content was determined by using Coornassie plus protein assay reagent, which is also compatible with denaturing agents (e.g., 6 M urea) and reducing agents (e.g., 10 mM DTT).
Protein stability was assessed by the percentage of water insoluble non-covalent BSA aggregates generated within the implants versus the initial encapsulated protein. Protein stability within PLGA implants was analyzed as follows: First, millicylinders with a length of 1 cm were incubated under 80% and 96% relative humidity (RH) at 37° C. for 21 days. Then, the polymer was dissolved in acetone and centrifuged to spin down the protein. The remaining protein pellet was washed three times with acetone and then air-dried. The final protein pellet was analyzed as in Analysis of the Protein Extracted from PLGA Implants. The protein remaining in PLGA implants after release in PBST at 37° C. for 28 days was also extracted similarly and analyzed as above.
The BSA pellet extracted from PLGA implants was first reconstituted in PBST and incubated at 37° C. overnight to determine the soluble protein fraction remaining in the polymer. Any remaining aggregates were collected by centrifugation again, and brought up in the denaturing solvent (PBST/6 M urea/1 mM EDTA) and incubated at 37° C. for 30 mm to dissolve non-covalent bonded BSA aggregates. Then, any final undissolved BSA aggregates were collected again and dissolved in the reducing solvent (the denaturing solvent plus 10 mM DTT) to dissolve any disulfide-bonded aggregates.
For quantitation of soluble BSA, a modified Bradford assay was used as follows: 10 μl of standard or sample in PBST was added to 250 μl of Coomassle reagent/well on a 96-well plate and then the plate was read at 595 nm using a Dynex MRX microplate reader (Dynex Technology, Inc., Chantilly, Va.). The concentration range of the standard curve was 50 to 1000 μg/ml. For quantitation of non-covalent and covalent BSA aggregates, the solvents used for preparation of standards and samples were 6 M urea and 6 M urea/10 mM DTT, respectively.
The solvent-extruded suspension was dried at room temperature (24 h) and then dried in a vacuum oven at 45° C. (24 h). For preparation of bFGF millicylinders, bFGF was combined with heparin, sucrose and BSA additives at a weight ratio (additive bFGF) of 1, 180, and 1000, respectively, in 0.5 mM EDTA and 10 mM sodium phosphate buffer (pH 7.4). The solution was lyophilized for 2 days at room temperature using a Labconco Freeze Dry System (Kansas City, Mo.) to a fine powder with 4% moisture (determined by a Karl Fisher Titrator (Model DL 18, Mettler-Toledo Inc., NJ)) and sieved before suspension in PLGA-acetone and extrusion. For preparation of […] millicylinders, solutions of BMP-2 combined with BSA or gum arabic (Sigma, St. Louis, Mo.) were similarly lyophilized and sieved. The millicylinders; were prepared in the same way as for BSA/PLGA millicylinders. […]

BSA [4] = biological target: T1, BSA; assay: Simulation of BSA instability in the polymer microclimate; format: physicochemical, bovine; details: Simulated: lyophilized BSA at pH 2 under 86% R.H. at 37° C.
Experimental: Three experiments were designed to simulate the potential deleterious conditions in PLGA devices. […] At various times, the protein was reconstituted in PBST and examined for the type of aggregates as described above. To examine the effect of water, water was directly added to lyophilized BSA at pH 2, sealed and then incubated at 37° C. for 1 week, and analyzed as above (16). […] Loss of BSA content from solution was used to determine the extent of BSA adsorption to the polymer.

BSA [5] = biological target: T1, BSA; assay: BSA release and aggregation in W/O/W PLGA microspheres in PBST at 37° C.; format: physicochemical, bovine
[6] = VCR and VBL stability and release in PLGA microspheres by HPLC; format: physicochemical
Experimental: All other reagents and solvents were of analytical grade or purer and purchased from commercial suppliers. Microspheres Preparation Microspheres were prepared by a standard oil-in-oil emulsion-solvent extraction method (17). […] The resulting solution or suspension was added drop-wise to 25 ml of oil (95% cottonseed oil and 5% Span 85 emulsifier) stirred at 500 rpm and room temperature. After 2.5 h of microsphere hardening. 40 ml of petroleum ether (bp: 50 to 100° C.) were added to the emulsion to extract CAN. The emulsion was stirred for additional 15 min, the particles were collected by filtration, and washed 3 times with petroleum ether. The hardened microspheres were flash-frozen with liquid nitrogen and lyophilized with a Labconco Freezone 6 system for 1 day.
The HPLC system consisted of the following: a 510 pump, a 717 Plus autosampler, and a 486 UV detector (waters, Milford, Mass.). […] The mobile phase was composed of aqueous solution of sodium phosphate (10 mM) and methanol 40:60 (v/v) (pH 7.0). For UV detection, the wavelength was set to 298 nm.
Drug release from microspheres was carried out in PBS (127 mM NaCl, 3 mM KCl, 8 mM Na2HPO4, 1 mM KH2PO4, pH 7.4) containing Tween 80 (0.02% w/w/) (PBST) at 37° C. under perfect sink conditions. […] Microspheres were weighed and dissolved in a 50% (v/v) ACN water solution. The precipitated polymer and salts were spun down by brief centrifugation. An aliquot of the supernatant containing drug was removed and analyzed by HPLC.

nude mice = assay: In vivo angiogenesis of subcutaneously implanted bFGF devices; details: BSA/Mg(OH)2-containing PLGA formulation implanted subcutaneously, data not shown
Excerpt: In both cases, a controlled release of protein was observed over 28 days (data not shown) resulting in a recovery (released+soluble residue fraction) of >80% (Table 3). In contrast, when the base was removed from the formulation (18% gum arabic), only 30% protein was recovered by the immunoassay. Therefore, the stability characteristic of BMP-2 in PLGA millicylinders was very similar to that of bFGF (although additional stabilizers were used for bFGF) with and without the addition of the basic additive. For both growth factors, in the absence of basic additive, the protein was released mostly on the first day and only a small amount of protein could be recovered from the polymer after 28 days release. In the presence of the basic salt, both proteins were continuously released with >80% recoverable in the 28-day experiment. Moreover, the in vivo biological activities (angiogenesis in nude mice for the bFGF and osteogenesis in rats for the BMP-2) of the BSA/Mg(OH)2-containing formulations were also confirmed when the devices were implanted subcutaneously (data not shown).

[7] = reference (31); cited from earlier work
Balb/c 3T3 fibroblasts = assay: Bioassay for bFGF, cell proliferation (3H-thymidine incorporation); format: cell-based; details: bFGF from Mg(OH)2/BSA/heparin PLGA millicylinders, release and residual fraction
Experimental: The biological activity of bFGF was determined by a cell proliferation assay (20). Balb/c 3T3 fibroblasts (25,000/well, CCL-163, ATCQ in Dulbecco's modified Eagle's medium (DMEM) containing 10% bovine calf serum, […] were seeded (200 μl/well) on 96-well plates. The cells were grown to confluence for one week without changing the medium. On day 7, bFGF samples or standards (10 μl) in the release medium were added and followed 20 h later by addition of 1 μCi of 3H-thymidine (6.7 Ci/mmol, DuPont/NEN® Research Products, Boston, Mass.) per well. After another 6-8 h, the cells were collected on filter paper by using a PHD TM cell harvester (Cambridge Technology Inc.). The harvested cells were resuspended in 3 ml of scintillation cocktail 3a7OB (Research Products International Corp., IL) and counted (Beckman LS 1701 scintillation counter).

T1 sequence (P02769 25-607): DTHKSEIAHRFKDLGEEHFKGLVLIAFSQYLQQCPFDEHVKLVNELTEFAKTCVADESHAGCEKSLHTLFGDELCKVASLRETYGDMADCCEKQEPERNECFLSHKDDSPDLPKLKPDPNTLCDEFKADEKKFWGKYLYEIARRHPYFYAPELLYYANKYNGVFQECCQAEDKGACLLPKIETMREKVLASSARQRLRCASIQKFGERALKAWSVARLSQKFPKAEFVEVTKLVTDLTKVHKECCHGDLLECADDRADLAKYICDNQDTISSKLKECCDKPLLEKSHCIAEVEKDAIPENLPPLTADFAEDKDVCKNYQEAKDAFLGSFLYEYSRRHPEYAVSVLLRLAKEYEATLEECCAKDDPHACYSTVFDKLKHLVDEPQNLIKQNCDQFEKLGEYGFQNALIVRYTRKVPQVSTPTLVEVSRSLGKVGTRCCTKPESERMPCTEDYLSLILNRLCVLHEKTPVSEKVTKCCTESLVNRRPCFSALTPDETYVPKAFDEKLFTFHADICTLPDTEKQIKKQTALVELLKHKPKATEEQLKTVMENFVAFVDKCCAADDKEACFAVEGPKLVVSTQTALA
tPA, sequence (P00750 36-562): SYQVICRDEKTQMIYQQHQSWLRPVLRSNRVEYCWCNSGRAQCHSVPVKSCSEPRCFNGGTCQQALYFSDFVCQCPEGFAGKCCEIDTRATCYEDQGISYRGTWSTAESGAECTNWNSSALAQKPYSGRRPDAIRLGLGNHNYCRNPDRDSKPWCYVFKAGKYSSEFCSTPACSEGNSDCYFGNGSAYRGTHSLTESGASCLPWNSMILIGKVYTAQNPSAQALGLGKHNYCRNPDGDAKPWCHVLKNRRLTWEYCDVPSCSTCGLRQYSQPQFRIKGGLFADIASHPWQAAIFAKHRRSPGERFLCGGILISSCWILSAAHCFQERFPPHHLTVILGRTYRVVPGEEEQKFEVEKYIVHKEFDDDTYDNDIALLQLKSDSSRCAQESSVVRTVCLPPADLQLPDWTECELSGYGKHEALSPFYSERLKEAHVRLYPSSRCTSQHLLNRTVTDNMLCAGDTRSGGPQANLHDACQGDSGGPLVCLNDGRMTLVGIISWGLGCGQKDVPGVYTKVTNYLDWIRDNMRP

one month release of tPA (tPA; 10% tPA powder in PLGA millicylinders with 3% Mg(OH)2): 98.0±0.2% | one month release of tPA (tPA; 10% tPA powder in PLGA millicylinders without Mg(OH)2): 77.1±2.6%
Molecule: tPA: tissue type endogenous serine protease, encapsulated as 10% tPA powder in PLGA millicylinders

pH of saturated solution [1]: 8.85 | pH after addition of 100 μl of 1 N HCl [2]: 5.86
Molecule: [OH-].[OH-].[Zn+2] [Zn(OH)2]

pH of saturated solution [1]: 6.82 | pH after addition of 100 μl of 1 N HCl [2]: 1.53
Molecule: O=P([O-])([O-])[O-].O=P([O-])([O-])[O-].[Zn+2].[Zn+2].[Zn+2] [Zn3(PO4)2]

pH of saturated solution [1]: 12.4 | pH after addition of 100 μl of 1 N HCl [2]: 12.20
Molecule: [Ca+2].[OH-].[OH-] [Ca(OH)2]

pH of saturated solution [1]: 9.26 | pH after addition of 100 μl of 1 N HCl [2]: 6.07
Molecule: O=C([O-])[O-].[Ca+2] [CaCO3]

protein released in 1 day (BSA [3]; PLGA millicylinders, 20% BSA loading without the base): > 90%
Molecule: Bovine serum albumin [BSA]
initially encapsulated BSA that formed non-covalent aggregates (BSA [3]; 15% BSA/PLGA implants without base, 2 weeks release in PBST at 37° C., previous results): more than 60% | Aggregates soluble in denaturing solvent (BSA [3]; Encapsulated: 15% BSA in PLGA millicylinders in PBST at 37° C., PBST with 6M urea, 1 mM EDTA): >98% | Peptide fragmentation (BSA [3]; Encapsulated: 15% BSA in PLGA millicylinders in PBST at 37° C., SDS-PAGE): 25, 40, and 55 kDa | Time to 50% aggregation (BSA [3]; Encapsulated: 15% BSA in PLGA millicylinders incubated in PBST at 37° C.): 12 days | Time to 50% aggregation (BSA [4]): 7 days | Aggregates soluble in denaturing solvent (BSA [4]; PBST with 6M urea, 1 mM EDTA): >94% | Peptide fragmentation (BSA [4]; SDS-PAGE): 25, 40, and 55 kDa | non-covalent aggregates (BSA [5]; BSA in PLGA microspheres by solvent evaporation, no base): 25-75% | disulfide-bonded aggregates (BSA [5]; BSA in PLGA microspheres, some control experiments): < 5%

stability of encapsulated drug ([6]; PLGA (50% D,L lactide content) microspheres): highly stabilized
Molecule: CC[C@]1(O)C[C@@H]2CN(CCc3c([nH]c4ccccc34)[C@@](C(=O)OC)(c3cc4c(cc3OC)N(C)[C@H]3[C@@](O)(C(=O)OC)[C@H](OC(C)=O)[C@]5(CC)C=CCN6CC[C@]43[C@@H]65)C2)C1 [VBL, vinblastine sulfate]

pH of saturated solution [1]: 7.77 | pH after addition of 100 μl of 1 N HCl [2]: 3.71
Molecule: O=P([O-])([O-])[O-].O=P([O-])([O-])[O-].[Ca+2].[Ca+2].[Ca+2] [Ca3(PO4)2]

drug degraded to the basic product during microsphere preparation ([6]; VCR PLGA microspheres with co-encapsulated base): 3% | pH of saturated solution [1]: 7.34 | pH after addition of 100 μl of 1 N HCl [2]: 5.36
Molecule: O=C([O-])[O-].[Zn+2] [ZnCO3]

pH of saturated solution [1]: 9.75 | Released (BSA [5]; 3% BSA/PLGA50/50 (0.20 dl/g) microspheres, 51-day release in PBST at 37° C.): more than 50% | BSA release after the first day burst over 28 days (BSA [5]; 4% BSA/PLGA50/50 (0.64 dl/g) W/O/W microspheres with basic salt): up to 10% | burst (BSA [5]; BSA/PLGA (0.20 dl/g) microspheres, data not shown): 32% | pH after addition of 100 μl of 1 N HCl [2]: 9.01
Molecule: O=C([O-])[O-].[Mg+2] [MgCO3]
stabilization of BSA (BSA [3]; PLGA millicylinders): stabilized BSA much better than the Mg(OH)2

Molecule: bFGF: recombinant human basic fibroblast growth factor
in vivo biological activity, angiogenesis (nude mice): confirmed | in vivo serum half-life [7]: < 3 min | bFGF bioactive over the entire release interval (Balb/c 3T3 fibroblasts): 65-85%
